Measurements as given in patent US20250179013A1, “INHIBITORS OF RNA HELICASE DHX9 AND USES THEREOF” (ACCENT THERAPEUTICS, INC., priority 2022, published 2025).
pEC50, pIC50: −log10 of the molar value.

What was measured:
LS411N cells = experiment: DHX9 Cellular Proliferation Assay (CellTiter-Glo), LS411N; assay type: cell-based; settings: Homo sapiens, LS-411N, 120 hours, read-out: LS411N (CRC-MSI-H) Antiproliferative IC50
[1] = system: DHX9 (circBRIP1 mRNA in HCT116 cells); experiment: DHX9 circBRIP1 Cellular Target Engagement TaqMan Multiplex Assay; assay type: cell-based; settings: Homo sapiens, HCT-116, TaqMan Multiplex Assay (footnote *), circBRIP1 qPCR, 72 hours
NCI-H747 cells = experiment: DHX9 Cellular Proliferation Assay (CellTiter-Glo), NCI-H747; assay type: cell-based; settings: Homo sapiens, 120 hours, read-out: H747 (CRC-MSS) Antiproliferative IC50
[2] = target: T1, Human recombinant DHX9 protein (Homo sapiens, UniProt Q08211); experiment: DHX9 ATPase assay (ADP-Glo biochemical assay); settings: for DHX9 Biochemical Max Inhibition: maximum inhibition in ATPase assay, 10 μM Aurintricarboxylic acid = 100%; for pIC50: read-out: DHX9 Biochemical Inflection Point
T1 construct: purchased Viva
T1 sequence (Q08211 whole entry): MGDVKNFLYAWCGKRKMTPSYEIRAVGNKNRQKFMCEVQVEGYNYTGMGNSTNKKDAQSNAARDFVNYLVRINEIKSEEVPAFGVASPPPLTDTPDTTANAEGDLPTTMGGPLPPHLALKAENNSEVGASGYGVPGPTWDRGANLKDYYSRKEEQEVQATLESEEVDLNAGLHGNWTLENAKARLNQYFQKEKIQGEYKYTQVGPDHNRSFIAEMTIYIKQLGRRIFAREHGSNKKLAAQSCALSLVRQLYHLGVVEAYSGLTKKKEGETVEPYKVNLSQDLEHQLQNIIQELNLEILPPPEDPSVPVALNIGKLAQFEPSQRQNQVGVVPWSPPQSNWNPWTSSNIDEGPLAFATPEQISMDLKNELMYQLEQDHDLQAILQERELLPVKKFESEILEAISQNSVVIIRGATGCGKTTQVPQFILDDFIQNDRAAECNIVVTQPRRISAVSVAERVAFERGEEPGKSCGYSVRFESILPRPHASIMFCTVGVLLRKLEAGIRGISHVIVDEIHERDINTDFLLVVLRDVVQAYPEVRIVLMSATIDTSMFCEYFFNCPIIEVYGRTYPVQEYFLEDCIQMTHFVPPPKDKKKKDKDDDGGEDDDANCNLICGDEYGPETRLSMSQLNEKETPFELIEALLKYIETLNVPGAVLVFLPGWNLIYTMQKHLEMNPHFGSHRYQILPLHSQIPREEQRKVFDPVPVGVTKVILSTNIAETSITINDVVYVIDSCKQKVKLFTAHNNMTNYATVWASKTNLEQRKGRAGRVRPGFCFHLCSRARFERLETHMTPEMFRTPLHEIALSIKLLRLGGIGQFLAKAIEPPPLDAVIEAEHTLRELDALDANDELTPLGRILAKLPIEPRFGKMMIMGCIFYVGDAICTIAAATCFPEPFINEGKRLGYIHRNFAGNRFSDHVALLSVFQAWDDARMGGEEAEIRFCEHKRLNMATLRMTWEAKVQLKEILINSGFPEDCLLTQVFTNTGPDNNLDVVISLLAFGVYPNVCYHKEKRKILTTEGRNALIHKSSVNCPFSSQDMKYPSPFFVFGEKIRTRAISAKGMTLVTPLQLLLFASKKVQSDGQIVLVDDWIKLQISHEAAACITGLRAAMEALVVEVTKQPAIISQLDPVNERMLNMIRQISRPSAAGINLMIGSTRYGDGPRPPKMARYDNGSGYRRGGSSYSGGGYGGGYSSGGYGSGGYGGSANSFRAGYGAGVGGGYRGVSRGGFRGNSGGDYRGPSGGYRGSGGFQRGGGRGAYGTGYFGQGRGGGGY

[3] = system: DHX9 (circBRIP1 mRNA in HCT116 cells); experiment: DHX9 circBRIP1 Cellular Target Engagement SYBR Green Assay; assay type: cell-based; settings: Homo sapiens, HCT-116, circBRIP1 qPCR, 72 hours

pEC50 [1]	pIC50 (NCI-H747 cells)	DHX9 Biochemical Max Inhibition [2] [%]	pIC50 [2]	pEC50 [3]	Structure (SMILES)	pIC50 (LS411N cells)
5.85	< 5.00	89.6	7.55	–	Cn1cc(C(=O)Nc2cccc(NS(C)(=O)=O)c2)cc1-c1ccc(N2CC(F)(F)C2)cn1 [Example 160, 5-[5-(3,3-difluoroazetidin-1-yl)pyridin-2-yl]-N-(3-methanesulfonamidophenyl)-1-methylpyrrole-3-carboxamide]	5.02
–	–	70.4	6.24	< 4.52	Cc1cc(C)nc(-n2nc(C(=O)Nc3cccc(NS(C)(=O)=O)c3)cc2C)n1 [Example 15]	–
–	–	70	7.61	5.36	CCS(=O)(=O)Nc1cccc(NC(=O)c2cc(-c3ccccn3)cs2)c1 [Example 97]	–
–	–	70.1	7.09	5.08	Cc1ccc(O)cc1-c1csc(C(=O)Nc2cccc(NS(C)(=O)=O)c2)c1 [Example 75]	–
–	–	71.2	7.49	5.36	CS(=O)(=O)Nc1cccc(NC(=O)c2cc(-c3c(O)cccc3F)cs2)c1 [Example 70]	–

Structure (SMILES)	pEC50 [1]	pIC50 (NCI-H747 cells)	DHX9 Biochemical Max Inhibition [2] [%]	pIC50 [2]	pEC50 [3]	pIC50 (LS411N cells)
CCS(=O)(=O)Nc1cccc(NC(=O)c2cc(-c3ccccc3)cs2)c1 [Example 96, N-(3-(ethylsulfonamido)phenyl)-4-phenylthiophene-2-carboxamide]	–	–	59.6	7.05	4.65	–
CS(=O)(=O)Nc1cccc(NC(=O)c2cc(-c3ccccc3)c(C(F)(F)F)s2)c1 [Example 99, N-(3-(methylsulfonamido)phenyl)-4-phenyl-5-(trifluoromethyl)thiophene-2-carboxamide]	–	–	35.8	6.15	< 4.52	–
